ChEMBL document CHEMBL1201862, “PubChem BioAssay data set” (2004)
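Protocol summary: plate cells (96-well), add compound at 5 concentrations, incubate 48 h, interpolate endpoints linearly. GI50 marks 50% less growth.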 The source made the active and inactive calls. No stated cut-off is given here; in the data, active = GI50 up to about 1.1 µM and inactive = higher.

Key:
Assay in all cases: inhibition of tumour cell growth, NCI panel, 48 h
[1] = system: CAKI-1
[2] = system: EKVX
[3] = system: HCC 2998
[4] = system: HCT-116
[5] = system: HL-60
[6] = system: KM12
[7] = system: LOX IMVI
[8] = system: MOLT-4
[9] = system: Malme-3M
[10] = system: NCI/ADR-RES
[11] = system: OVCAR-5
[12] = system: SK-MEL-2
[13] = system: SK-MEL-5
[14] = system: SW-620
[15] = system: T47D
[16] = system: SK-OV-3
[17] = system: SNB-75

| Structure (SMILES) | GI50 [1] | GI50 [2] | GI50 [3] | GI50 [4] | GI50 [5] | GI50 [6] | GI50 [7] | GI50 [8] | GI50 [9] | GI50 [10] | GI50 [11] | GI50 [12] | GI50 [13] | GI50 [14] | GI50 [15] | GI50 [16] | GI50 [17] |
| --- | --- | --- | --- | --- | --- | --- | --- | --- | --- | --- | --- | --- | --- | --- | --- | --- | --- |
| CCOC(=O)C1=C(C)N(Cc2ccccc2)C2(O)C(OC)CC(=O)C3C(=O)N(c4ccccc4)C(=O)C132 (configuration not stated) | 17 µM (inactive) | 23.7 µM (inactive) | 12.4 µM (inactive) | 6.3 µM (inactive) | 3.93 µM (inactive) | 8.75 µM (inactive) | 3.39 µM (inactive) | 7.45 µM (inactive) | 14.5 µM (inactive) | 13.8 µM (inactive) | 13.8 µM (inactive) | 7.57 µM (inactive) | 10.3 µM (inactive) | 4.93 µM (inactive) | 4.28 µM (inactive) | – | – |
| Cc1c2c3cc(O)ccc3nc-2n(C)c2ccccc12 | – | 2.58 µM (inactive) | 2.77 µM (inactive) | 0.459 µM (active) | 2.34 µM (inactive) | 1.69 µM (inactive) | – | 0.399 µM (active) | 1.48 µM (inactive) | 0.957 µM (active) | 3.3 µM (inactive) | – | 1.09 µM (active) | 0.497 µM (active) | 2.68 µM (inactive) | 1.46 µM (inactive) | 2.45 µM (inactive) |
| CCCS(=O)OC1C(C2COC(C)(C)O2)OC2OC(C)(C)OC21 (configuration not stated) | 11.6 µM (inactive) | 16.4 µM (inactive) | 16.5 µM (inactive) | 6.07 µM (inactive) | – | 13.1 µM (inactive) | 6.43 µM (inactive) | 1.63 µM (inactive) | 9.59 µM (inactive) | 17.5 µM (inactive) | 12.2 µM (inactive) | 16.1 µM (inactive) | 13.2 µM (inactive) | 8.49 µM (inactive) | 20.9 µM (inactive) | 22 µM (inactive) | 12.9 µM (inactive) |
| CC(=O)CCC(=O)CC(O)(C(F)(F)F)C(F)(F)F | – | > 10 µM (inactive) | 18.4 µM (inactive) | 16.9 µM (inactive) | 18.5 µM (inactive) | 15.9 µM (inactive) | – | 17.9 µM (inactive) | 16.7 µM (inactive) | 25.3 µM (inactive) | 12.9 µM (inactive) | – | 18.1 µM (inactive) | 21.6 µM (inactive) | 11.4 µM (inactive) | > 10 µM (inactive) | 27.5 µM (inactive) |
| O=c1[nH]nc(-c2ccccc2)n1-n1cnnc1 | > 100 µM (inactive) | > 100 µM (inactive) | > 100 µM (inactive) | > 100 µM (inactive) | – | > 100 µM (inactive) | > 100 µM (inactive) | > 100 µM (inactive) | > 100 µM (inactive) | > 100 µM (inactive) | > 100 µM (inactive) | > 100 µM (inactive) | > 100 µM (inactive) | > 100 µM (inactive) | > 100 µM (inactive) | > 100 µM (inactive) | > 100 µM (inactive) |
| Cc1cc(C23OC4COC(C)(C)OC4C2OC(C)(C)O3)nc2ccccc12 (configuration not stated) | – | > 100 µM (inactive) | > 100 µM (inactive) | > 100 µM (inactive) | 33.4 µM (inactive) | > 100 µM (inactive) | > 100 µM (inactive) | 25.5 µM (inactive) | > 100 µM (inactive) | > 100 µM (inactive) | > 100 µM (inactive) | > 100 µM (inactive) | > 100 µM (inactive) | > 100 µM (inactive) | > 100 µM (inactive) | > 100 µM (inactive) | > 100 µM (inactive) |
| Nc1ccc(Oc2ccc(C34CC5CC6C3CC3CC4C(C5)C6(c4ccc(Oc5ccc(N)cc5)cc4)C3)cc2)cc1 | 19 µM (inactive) | 11.5 µM (inactive) | 18 µM (inactive) | 8.41 µM (inactive) | 7.14 µM (inactive) | 19.5 µM (inactive) | 20 µM (inactive) | 7.98 µM (inactive) | 0.216 µM (active) | > 74.6 µM (inactive) | > 100 µM (inactive) | 4.37 µM (inactive) | 0.561 µM (active) | 19.7 µM (inactive) | 9.14 µM (inactive) | 22.8 µM (inactive) | – |
